According to patent US9249112B2, “Solid forms of a transthyretin dissociation inhibitor” (PFIZER INC., priority 2011, dated 2016):

Columns and labels:
Type in all cases: physicochemical
[1] = hygroscopicity of the solid form; conditions: crystalline form, anhydrous mono-meglumine salt
[2] = gel formation on contact with aqueous vehicles; conditions: compound alone, on contact with aqueous vehicles such as water, phosphate buffer and hydrochloric acid
Source text: Without wishing to be bound by theory, it appears that such gel formation, upon oral administration, can hinder dissolution and/or bioavailability of such compounds, leading to, for example, stomach compaction and non-proportional plasma levels of drug in the subject as compared to the dose administered. […] Consequently, the pharmaceutical compositions herein are also contemplated for use in or further combination with any conventional formulation or route or method of administration where contact with water or other aqueous vehicles may occur, e.g., contact with blood or other body fluids as in various forms of parenteral administration (e.g., contact with blood in intravenous administration, implants, and the like), contact with mucous membranes (e.g., suppositories via vaginal or rectal administration, dry powder aerosols for pulmonary administration, transdermal patches or lozenges applied to mucous membranes, and the like). In such routes of administration, the benefits of the certain pharmaceutical compositions, such as resistance to gel formation, greater dissolution and bioavailability, dose proportionality, stability to storage, or the like may be beneficial.

[3] = solubility in unbuffered water; conditions: free acid

| hygroscopicity [1] | gel formation [2] | solubility [3] [µg/mL] | Molecule |
| --- | --- | --- | --- |
| non-hygroscopic | – | – | 6-carboxy-2-(3,5-dichlorophenyl)-benzoxazole meglumine [Compound 1] |
| – | can form a gel | < 11 | O=C(O)c1ccc2nc(-c3cc(Cl)cc(Cl)c3)oc2c1 [free acid, 6-carboxy-2-(3,5-dichlorophenyl)-benzoxazole] |
